Data taken from PMC3118119, “Functional characterization of an alkaline exonuclease and single strand annealing protein from the SXT genetic element of Vibrio cholerae” (BMC Molecular Biology, 2011).
Counter-ions that a name gives are not always drawn. Like-named read-outs stand apart in the source and are kept apart here.

Legend:
SXT-Exo (S066) = SXT-Exo (S066) (Vibrio cholerae, UniProt Q8KQV9); test: quenched PicoGreen dsDNA exonuclease assay; type: biochemical
[1] = target: SXT-Exo alkaline exonuclease (S066) from the SXT genetic element of Vibrio cholerae (SXT integrating conjugative element of Vibrio cholerae) (UniProt Q79S39); test: SEC; Superdex 200 HR 10/300 GL, 25 mM Tris-HCl pH7.4, 150 mM NaCl, 1 mM EDTA, 5 mM imidazole, 0.4 ml/min, 4°C; column calibrated with protein standards; oligomer size from the apparent molecular weight
P03697 = test: as above
Q79S39 = test: as above

SXT-Exo (S066), sequence (Q8KQV9 1-338 limits assumed): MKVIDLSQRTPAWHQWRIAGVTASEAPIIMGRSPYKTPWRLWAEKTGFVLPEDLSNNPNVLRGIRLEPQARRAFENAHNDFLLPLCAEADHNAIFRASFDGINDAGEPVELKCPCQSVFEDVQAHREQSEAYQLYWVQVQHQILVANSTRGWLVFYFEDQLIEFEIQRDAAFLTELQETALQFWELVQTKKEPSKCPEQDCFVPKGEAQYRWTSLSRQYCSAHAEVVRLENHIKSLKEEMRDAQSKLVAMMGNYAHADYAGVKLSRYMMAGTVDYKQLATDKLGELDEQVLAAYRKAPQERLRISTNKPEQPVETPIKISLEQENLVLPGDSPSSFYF

O=S(=O)(O)O [potassium sulfate]
IC50 (SXT-Exo (S066)): ~35 mM

O=P(O)(O)O [sodium phosphate]
IC50 (SXT-Exo (S066); IC50): 25 mM

O=S(=O)(O)O [sodium sulfate]
IC50 (SXT-Exo (S066); IC50): ~20 mM

SXT-Exo alkaline exonuclease (S066) from the SXT genetic element of Vibrio cholerae (from UniProt Q79S39 1-215) (enzyme)
stoichiometry N [1]: 3

B1: lambda-Exo alkaline exonuclease from bacteriophage lambda (protein)
chain: MTPDIILQRTGIDVRAVEQGDDAWHKLRLGVITASEVHNVIAKPRSGKKWPDMKMSYFHTLLAEVCTGVAPEVNAKALAWGKQYENDARTLFEFTSGVNVTESPIIYRDESMRTACSPDGLCSDGNGLELKCPFTSRDFMKFRLGGFEAIKSAYMAQVQYSMWVTRKNAWYFANYDPRMKREGLHYVVIERDEKYMASFDEIVPEFIEKMDEALAEIGFVFGEQWR
monomers per oligomer from the SEC apparent molecular weight (P03697): corresponded to 3.35 protein monomers

B2: SXT-Exo alkaline exonuclease (S066) from the SXT genetic element of Vibrio cholerae (protein)
chain: MKTLSERLNHALQLTGVTQSELARRIGIKQQSISQICSGKSARSRYTMQIAEALRVNAHWLATGDGEIGLGVGNVEVGPDIKGRIPLINWVQAGDWTEIAEGFAHEDAEEWREVTGKAHEGCFALRVKGDSMENPSGKKSIPEGAVIVVDPELPYSSGSLVVARLDDSKEATFKQLVIDGEQKYLKPLNPQYPAIPINGNCTIIGVVRQAIIDFW
monomers per oligomer from the SEC apparent molecular weight (Q79S39): corresponded to ca. 3.5 SXT-Exo monomers
